Test results from ChEMBL document CHEMBL1145107, “Peptide science: exploring the use of chemical principles and interdisciplinary collaboration for understanding life processes” (J Med Chem, 2003).
Where a SMILES comes first, the peptide text is derived from it. [ ]: non-standard residue; d: D form. NMeNle = CCCC[C@H](NC)C(=O)O; dNle = CCCC[C@@H](N)C(=O)O

Key:
[1] = Biological activity using the frog skin (Rana pipiens) assay. The value indicates no prolonged biological activity; assay type: functional
Anolis carolinensis [2] = assay: Biological activity using the lizard skin (Anolis carolinensis) assay. The value indicates no prolonged biological activity; assay type: functional, organism-based
[3] = molecular target: T1, Cholecystokinin receptor type A (Homo sapiens, UniProt P32238); assay: Binding affinity towards Cholecystokinin type A receptor (CCK-A) receptor was determined
T1 sequence (P32238 whole entry): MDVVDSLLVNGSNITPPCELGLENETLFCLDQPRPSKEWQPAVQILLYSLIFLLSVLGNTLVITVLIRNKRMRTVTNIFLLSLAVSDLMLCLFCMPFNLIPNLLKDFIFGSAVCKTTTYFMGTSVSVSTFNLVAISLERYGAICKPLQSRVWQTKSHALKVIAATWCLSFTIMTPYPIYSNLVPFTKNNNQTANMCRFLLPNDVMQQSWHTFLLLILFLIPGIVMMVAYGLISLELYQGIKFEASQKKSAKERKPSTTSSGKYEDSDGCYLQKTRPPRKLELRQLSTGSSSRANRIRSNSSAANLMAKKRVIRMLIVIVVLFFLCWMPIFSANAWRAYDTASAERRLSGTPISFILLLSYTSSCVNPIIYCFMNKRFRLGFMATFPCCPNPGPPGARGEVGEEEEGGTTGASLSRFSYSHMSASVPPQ

Mu-type opioid receptor [4] = molecular target: T2, Mu-type opioid receptor (Homo sapiens, UniProt P35372); assay: Binding affinity towards Opioid receptor mu 1 was determined
T2 sequence (P35372 whole entry): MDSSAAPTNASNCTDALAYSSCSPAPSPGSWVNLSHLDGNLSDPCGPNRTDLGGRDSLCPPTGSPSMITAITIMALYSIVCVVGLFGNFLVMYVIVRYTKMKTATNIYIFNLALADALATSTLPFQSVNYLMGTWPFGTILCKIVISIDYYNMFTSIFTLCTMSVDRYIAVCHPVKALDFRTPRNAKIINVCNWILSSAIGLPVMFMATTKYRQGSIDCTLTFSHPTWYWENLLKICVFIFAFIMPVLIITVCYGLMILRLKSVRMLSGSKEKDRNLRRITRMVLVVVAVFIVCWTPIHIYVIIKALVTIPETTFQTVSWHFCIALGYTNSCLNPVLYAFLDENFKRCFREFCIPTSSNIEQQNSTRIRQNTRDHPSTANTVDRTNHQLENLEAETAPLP

[5] = molecular target: Delta-type opioid receptor (Homo sapiens, UniProt P41143); assay: Binding affinity towards Opioid receptor delta 1 was determined
Delta-type opioid receptor (Homo sapiens, UniProt P41143), sequence (P41143 whole entry): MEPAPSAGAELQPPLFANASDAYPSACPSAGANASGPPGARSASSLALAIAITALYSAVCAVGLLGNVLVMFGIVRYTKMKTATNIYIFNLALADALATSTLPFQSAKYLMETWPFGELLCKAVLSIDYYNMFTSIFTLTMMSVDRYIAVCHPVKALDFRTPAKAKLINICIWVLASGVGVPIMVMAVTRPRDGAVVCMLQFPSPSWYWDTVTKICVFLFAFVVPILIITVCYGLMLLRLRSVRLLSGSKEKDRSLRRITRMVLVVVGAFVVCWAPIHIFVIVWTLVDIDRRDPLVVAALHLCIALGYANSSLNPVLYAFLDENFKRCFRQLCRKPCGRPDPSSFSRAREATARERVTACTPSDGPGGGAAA

[6] = molecular target: T3, Gastrin/cholecystokinin type B receptor (Homo sapiens, UniProt P32239); assay: Binding affinity towards Cholecystokinin type B receptor (CCK-B) receptor was determined
T3 sequence (P32239 whole entry): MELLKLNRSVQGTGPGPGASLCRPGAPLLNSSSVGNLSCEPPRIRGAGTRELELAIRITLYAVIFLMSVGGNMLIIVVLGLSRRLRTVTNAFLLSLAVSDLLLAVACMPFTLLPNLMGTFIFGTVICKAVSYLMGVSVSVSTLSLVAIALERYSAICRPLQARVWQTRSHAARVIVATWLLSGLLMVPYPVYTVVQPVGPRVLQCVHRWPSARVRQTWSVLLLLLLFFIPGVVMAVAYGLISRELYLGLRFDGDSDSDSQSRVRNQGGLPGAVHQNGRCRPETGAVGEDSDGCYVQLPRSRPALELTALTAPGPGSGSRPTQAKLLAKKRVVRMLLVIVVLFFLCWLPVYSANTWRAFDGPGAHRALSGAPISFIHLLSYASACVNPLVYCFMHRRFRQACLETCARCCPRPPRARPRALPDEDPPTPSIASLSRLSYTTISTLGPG

[7] = Biological activity using the frog skin (Rana pipiens) assay. The value indicates prolonged biological activity; assay type: functional
Anolis carolinensis [8] = assay: Biological activity using the lizard skin (Anolis carolinensis) assay. The value indicates prolonged biological activity; assay type: functional, organism-based
Mu-type opioid receptor [9] = molecular target: T2, Mu-type opioid receptor; assay: Binding affinity towards Opioid receptor mu 1 using [3H]- CTOP as radioligand
[10] = molecular target: Delta-type opioid receptor (Rattus norvegicus, UniProt P33533); assay: Binding affinity towards Opioid receptor delta 1 using [3H]- [p-CIPhe4] DPDPE as radioligand
Delta-type opioid receptor (Rattus norvegicus, UniProt P33533), sequence (P33533 whole entry): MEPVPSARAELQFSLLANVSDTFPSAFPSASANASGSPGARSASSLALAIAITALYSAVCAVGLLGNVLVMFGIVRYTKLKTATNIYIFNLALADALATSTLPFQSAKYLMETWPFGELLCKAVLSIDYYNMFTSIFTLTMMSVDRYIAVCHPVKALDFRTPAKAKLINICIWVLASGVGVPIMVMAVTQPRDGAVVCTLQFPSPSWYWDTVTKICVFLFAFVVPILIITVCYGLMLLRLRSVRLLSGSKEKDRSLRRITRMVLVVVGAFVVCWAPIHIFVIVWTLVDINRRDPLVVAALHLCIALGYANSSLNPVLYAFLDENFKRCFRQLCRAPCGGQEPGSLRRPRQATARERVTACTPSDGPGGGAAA

Oxytocin receptor = molecular target: T4, Oxytocin receptor (Homo sapiens, UniProt P30559); assay: Binding affinity towards oxytocin receptor
T4 sequence (P30559 whole entry): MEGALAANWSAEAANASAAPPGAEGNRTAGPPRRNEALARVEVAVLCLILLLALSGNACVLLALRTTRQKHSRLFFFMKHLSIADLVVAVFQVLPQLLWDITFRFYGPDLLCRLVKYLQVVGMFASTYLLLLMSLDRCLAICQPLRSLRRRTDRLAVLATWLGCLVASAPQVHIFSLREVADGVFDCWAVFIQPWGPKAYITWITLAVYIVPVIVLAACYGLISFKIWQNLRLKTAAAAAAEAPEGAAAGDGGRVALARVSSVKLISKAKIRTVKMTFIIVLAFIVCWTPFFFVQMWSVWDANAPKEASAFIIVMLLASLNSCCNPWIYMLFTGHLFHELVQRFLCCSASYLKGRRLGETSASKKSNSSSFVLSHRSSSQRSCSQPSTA

CCCC[C@H](NC(C)=O)C(=O)N[C@H]1CC(=O)NC[C@@H](C(N)=O)NC(=O)[C@H](Cc2c[nH]c3ccccc23)NC(=O)[C@H](CCCN=C(N)N)NC(=O)[C@@H](Cc2ccccc2)NC(=O)[C@H](Cc2c[nH]cn2)NC1=O
EC50 [1]: 50 nM | EC50 (Anolis carolinensis [2]): 0.2 nM

CCCC[C@H](NC(C)=O)C(=O)N[C@H]1CC(=O)NCCC[C@@H](C(N)=O)NC(=O)[C@H](Cc2c[nH]c3ccccc23)NC(=O)[C@H](CCCN=C(N)N)NC(=O)[C@@H](Cc2ccccc2)NC(=O)[C@H](Cc2c[nH]cn2)NC1=O
EC50 [1]: 0.5 nM | EC50 (Anolis carolinensis [2]): 0.05 nM

CCCC[C@@H](C(=O)N[C@@H](CC(=O)O)C(=O)N[C@@H](Cc1ccccc1)C(N)=O)N(C)C(=O)[C@@H](Cc1c[nH]c2ccccc12)NC(=O)CNC(=O)[C@@H](C)NC(=O)[C@@H](N)Cc1ccc(O)cc1 (H-Y[dA]G[dW][NMeNle]DF-NH2)
Ki [3]: 32 nM | Ki (Mu-type opioid receptor [4]): 20 nM | Ki [5]: 1.9 nM | Ki [6]: 1.3 nM

CCCC[C@H](NC(C)=O)C(=O)N[C@H]1CCC(=O)NCCCC[C@@H](C(N)=O)NC(=O)[C@H](Cc2c[nH]c3ccccc23)NC(=O)[C@H](CCCN=C(N)N)NC(=O)[C@@H](Cc2ccccc2)NC(=O)[C@H](Cc2c[nH]cn2)NC1=O
EC50 [7]: 1 nM | EC50 (Anolis carolinensis [8]): 0.11 nM

CCCC[C@H](NC(C)=O)C(=O)N[C@H]1CC(=O)NCCCC[C@@H](C(N)=O)NC(=O)[C@H]([C@H](C)c2c[nH]c3ccccc23)NC(=O)[C@H](CCCN=C(N)N)NC(=O)[C@@H](Cc2ccccc2)NC(=O)[C@H](Cc2c[nH]cn2)NC1=O
EC50 [1]: 29 nM | EC50 (Anolis carolinensis [2]): 6.7 nM

Cc1cc(O)cc(C)c1[C@@H](C)[C@H](N)C(=O)N[C@H]1C(=O)NCC(=O)N[C@@H](Cc2ccccc2)C(=O)N[C@@H](C(=O)O)C(C)(C)SSC1(C)C
IC50 (Mu-type opioid receptor [9]): 4300 nM

Cc1cc(O)cc(C)c1[C@H](C)[C@H](N)C(=O)N[C@H]1C(=O)NCC(=O)N[C@@H](Cc2ccccc2)C(=O)N[C@@H](C(=O)O)C(C)(C)SSC1(C)C
IC50 (Mu-type opioid receptor [9]): 720 nM | IC50 [10]: 210 nM

CCCC[C@H](NC(C)=O)C(=O)N[C@H]1CC(=O)NCCCC[C@@H](C(N)=O)NC(=O)[C@@H]([C@H](C)c2c[nH]c3ccccc23)NC(=O)[C@H](CCCN=C(N)N)NC(=O)[C@@H](Cc2ccccc2)NC(=O)[C@H](Cc2c[nH]cn2)NC1=O
EC50 [7]: 0.33 nM | EC50 (Anolis carolinensis [8]): 1 nM

CCCC[C@H](NC(C)=O)C(=O)N[C@H]1CC(=O)NCCCC[C@@H](C(N)=O)NC(=O)[C@@H]([C@@H](C)c2c[nH]c3ccccc23)NC(=O)[C@H](CCCN=C(N)N)NC(=O)[C@@H](Cc2ccccc2)NC(=O)[C@H](Cc2c[nH]cn2)NC1=O
EC50 [7]: 0.06 nM | EC50 (Anolis carolinensis [8]): 1.43 nM

CCCC[C@@H](C(=O)N[C@@H](CC(=O)O)C(=O)N[C@@H](Cc1ccccc1)C(N)=O)N(C)C(=O)[C@@H](Cc1c[nH]c2ccccc12)NC(=O)CNC(=O)[C@@H](Cc1ccccc1)NC(=O)[C@@H](N)Cc1ccc(O)cc1 (H-Y[dF]G[dW][NMeNle]DF-NH2)
Ki (Mu-type opioid receptor [4]): 5.7 nM | Ki [5]: 0.5 nM | Ki [6]: 1.6 nM

CCCC[C@@H](C(=O)N[C@@H](CC(=O)O)C(=O)N[C@@H](Cc1ccccc1)C(N)=O)N(C)C(=O)[C@H](Cc1c[nH]c2ccccc12)NC(=O)[C@H](CCC(=O)O)NC(=O)[C@@H](Cc1ccccc1)NC(=O)[C@@H](N)Cc1ccc(O)cc1
Ki [3]: 10000 nM | Ki (Mu-type opioid receptor [4]): 136 nM | Ki [5]: 6.8 nM | Ki [6]: 2.1 nM

CCCC[C@H](NC(C)=O)C(=O)N[C@H]1CCC(=O)NCCCC[C@@H](C(=O)NCC(=O)N2CCC[C@H]2C(=O)N[C@H](C(N)=O)C(C)C)NC(=O)[C@H](Cc2c[nH]c3ccccc23)NC(=O)[C@H](CCCN=C(N)N)NC(=O)[C@@H](Cc2ccccc2)NC(=O)[C@H](Cc2c[nH]cn2)NC1=O
EC50 [7]: 0.5 nM | EC50 (Anolis carolinensis [8]): 0.17 nM

CCCC[C@H](NC(C)=O)C(=O)N[C@H]1CC(=O)NCCCC[C@@H](C(=O)NCC(=O)N2CCC[C@H]2C(=O)N[C@H](C(N)=O)C(C)C)NC(=O)[C@H](Cc2c[nH]c3ccccc23)NC(=O)[C@H](CCCN=C(N)N)NC(=O)[C@@H](Cc2ccccc2)NC(=O)[C@H](Cc2c[nH]cn2)NC1=O
EC50 [7]: 0.5 nM | EC50 (Anolis carolinensis [8]): 0.01 nM

CC[C@H](C)[C@@H]1NC(=O)[C@H](Cc2ccc(O)cc2)NC(=O)[C@H](N)C(C)(C)SSC[C@@H]2NC(=O)[C@H](CC(N)=O)NC(=O)[C@H](CCC(=O)NCCCC[C@@H](C(=O)NCC(N)=O)NC(=O)[C@@H]3CCCN3C2=O)NC1=O
IC50 (Oxytocin receptor): 130 nM

CC[C@H](C)[C@@H]1NC(=O)[C@H]([C@@H](C)c2c(C)cc(OC)cc2C)NC(=O)[C@H](N)C(C)(C)SSC[C@@H]2NC(=O)[C@H](CC(N)=O)NC(=O)[C@H](CCC(=O)NCCCC[C@@H](C(=O)NCC(N)=O)NC(=O)[C@@H]3CCCN3C2=O)NC1=O
IC50 (Oxytocin receptor): 8 nM

CC[C@H](C)[C@@H]1NC(=O)[C@@H]([C@H](C)c2c(C)cc(OC)cc2C)NC(=O)[C@H](N)C(C)(C)SSC[C@@H]2NC(=O)[C@H](CC(N)=O)NC(=O)[C@H](CCC(=O)NCCCC[C@@H](C(=O)NCC(N)=O)NC(=O)[C@@H]3CCCN3C2=O)NC1=O
IC50 (Oxytocin receptor): 160 nM

CCCC[C@H](NC(C)=O)C(=O)N[C@H]1CC(=O)NCC[C@@H](C(N)=O)NC(=O)[C@H](Cc2c[nH]c3ccccc23)NC(=O)[C@H](CCCN=C(N)N)NC(=O)[C@@H](Cc2ccccc2)NC(=O)[C@H](Cc2c[nH]cn2)NC1=O
EC50 [1]: 0.5 nM | EC50 (Anolis carolinensis [2]): 0.2 nM

CCCC[C@@H](C(=O)N[C@@H](CC(=O)O)C(=O)N[C@@H](Cc1ccccc1)C(N)=O)N(C)C(=O)[C@H](Cc1c[nH]c2ccccc12)NC(=O)CNC(=O)CNC(=O)[C@@H](N)Cc1ccc(O)cc1 (H-YGGW[NMeNle]DF-NH2)
Ki [3]: 870 nM | Ki (Mu-type opioid receptor [4]): 610 nM | Ki [5]: 2000 nM | Ki [6]: 1.3 nM

CCCC[C@H](NC(C)=O)C(=O)N[C@H]1CC(=O)NCCCC[C@@H](C(N)=O)NC(=O)[C@H]([C@@H](C)c2c[nH]c3ccccc23)NC(=O)[C@H](CCCN=C(N)N)NC(=O)[C@@H](Cc2ccccc2)NC(=O)[C@H](Cc2c[nH]cn2)NC1=O
EC50 [1]: 0.44 nM | EC50 (Anolis carolinensis [8]): 1 nM

CC[C@H](C)[C@@H]1NC(=O)[C@H]([C@H](C)c2c(C)cc(OC)cc2C)NC(=O)[C@H](N)C(C)(C)SSC[C@@H]2NC(=O)[C@@H](CC(N)=O)NC(=O)[C@@H](CCC(=O)NCCCC[C@H](C(=O)NCC(N)=O)NC(=O)[C@H]3CCCN3C2=O)NC1=O
IC50 (Oxytocin receptor): 19000 nM

CC[C@H](C)[C@@H]1NC(=O)[C@@H]([C@@H](C)c2c(C)cc(OC)cc2C)NC(=O)[C@H](N)C(C)(C)SSC[C@@H]2NC(=O)[C@@H](CC(N)=O)NC(=O)[C@@H](CCC(=O)NCCCC[C@H](C(=O)NCC(N)=O)NC(=O)[C@H]3CCCN3C2=O)NC1=O
IC50 (Oxytocin receptor): 36000 nM

CCCC[C@@H](C(=O)N[C@@H](CC(=O)O)C(=O)N[C@@H](Cc1ccccc1)C(N)=O)N(C)C(=O)[C@H](Cc1c[nH]c2ccccc12)NC(=O)CNC(=O)[C@@H](Cc1ccccc1)NC(=O)[C@H](Cc1ccc(O)cc1)NC(=O)[C@@H](N)CC(=O)O
Ki [3]: 3330 nM | Ki (Mu-type opioid receptor [4]): 5200 nM

CCCC[C@@H](NC(=O)[C@@H](N)Cc1ccc(O)cc1)C(=O)NCC(=O)N[C@@H](Cc1c[nH]c2ccccc12)C(=O)N(C)[C@@H](CCCC)C(=O)N[C@@H](CC(=O)O)C(=O)N[C@@H](Cc1ccccc1)C(N)=O (H-Y[dNle]GW[NMeNle]DF-NH2)
Ki [3]: 3900 nM | Ki (Mu-type opioid receptor [4]): 25 nM | Ki [5]: 1.6 nM | Ki [6]: 0.6 nM
